Laboratory results: patent US6387881B1, “Inhibitors and substrates of thrombin” (priority 1992, dated 2002)
pIC50, pKi: −log10 of the molar value. Where “and” joins values, the source holds several entries; their conditions need not be identical. Identical values can stand only once. Like-named read-outs stand apart in the source and are kept apart here.

Columns and labels:
[1] = IC50 with and without incubation (enzyme not given); type: biochemical
[2] = molecular target: human α-thrombin (Homo sapiens, UniProt P00734); experiment: biochemical; type: biochemical
Description: The inhibition of human α-thrombin was determined by the inhibition of the enzyme catalyzed hydrolysis of three different concentrations of the chromogenic substrate S-2238.
200 μl of sample or buffer and 50 μl of S-2238 were incubated at 37° C. for 1 min and 50 μl of human α-thrombin (0.25 NIHu/ml) was added. The initial rate of inhibited and uninhibited reactions were recorded at 405 nm. The increase in optical density was plotted according to the method of Lineweaver and Burke. The Km and apparent Km were determined and Ki was calculated using the relationship: [formula]

[3] = molecular target: T1, bovine thrombin in citrated normal human plasma (Bos taurus, UniProt P00735); experiment: Plasma thrombin time (TT), in vitro; type: biochemical; conditions: inhibitor concentration that caused a doubling of the thrombin time
T1 construct: freshly prepared bovine thrombin (5 NIHu/ml saline)
Description: (§1) A volume of 150 μl of citrated normal human plasma and 20 μl of buffer or sample were warmed at 37° C. for 1 min. Coagulation was started by adding 150 ul of freshly prepared bovine thrombin (5 NIHu/ml saline) and the coagulation time was recorded on a coagulometer.
(§2) A phosphate buffer, pH 7.8, containing 0.1% bovine serum albumine and 0.02% sodium azide was used. The samples were dissolved in DMSO and diluted with the buffer. When no inhibitor was used DMSO was added to the buffer to the same concentration as that used in the samples. The inhibitor concentrations were plotted against the thrombin times in a semilogarithmic graph from which the inhibitor concentration that caused a doubling (40 sec) of the thrombin time was determined.

[4] = test system: Kalhikrein; experiment: IC50 against kallikrein; type: biochemical
[5] = molecular target: T2, Xa (Homo sapiens, UniProt P00742); experiment: IC50 against Xa; type: biochemical
T2 construct: Plasmin; Xa; Urokinase
T2 sequence (P00742 41-179 limits assumed): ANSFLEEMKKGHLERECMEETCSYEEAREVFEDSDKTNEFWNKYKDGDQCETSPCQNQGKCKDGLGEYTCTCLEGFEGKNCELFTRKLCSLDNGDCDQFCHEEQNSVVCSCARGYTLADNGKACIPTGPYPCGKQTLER
T2 sequence (P00742 235-488 limits assumed): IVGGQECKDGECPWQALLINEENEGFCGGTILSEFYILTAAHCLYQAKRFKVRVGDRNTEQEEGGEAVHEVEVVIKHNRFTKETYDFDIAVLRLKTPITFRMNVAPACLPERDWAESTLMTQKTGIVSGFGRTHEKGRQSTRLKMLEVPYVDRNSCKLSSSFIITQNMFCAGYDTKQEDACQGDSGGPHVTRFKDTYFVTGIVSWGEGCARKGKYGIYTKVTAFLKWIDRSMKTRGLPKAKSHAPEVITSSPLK

[6] = molecular target: Urokinase (Homo sapiens, UniProt P00749); experiment: IC50 against urokinase; type: biochemical
[7] = molecular target: Plasmin (Homo sapiens, UniProt P00747); experiment: IC50 against plasmin; type: biochemical
Sequence of Plasmin (P00747 97-580 limits assumed, species assumed): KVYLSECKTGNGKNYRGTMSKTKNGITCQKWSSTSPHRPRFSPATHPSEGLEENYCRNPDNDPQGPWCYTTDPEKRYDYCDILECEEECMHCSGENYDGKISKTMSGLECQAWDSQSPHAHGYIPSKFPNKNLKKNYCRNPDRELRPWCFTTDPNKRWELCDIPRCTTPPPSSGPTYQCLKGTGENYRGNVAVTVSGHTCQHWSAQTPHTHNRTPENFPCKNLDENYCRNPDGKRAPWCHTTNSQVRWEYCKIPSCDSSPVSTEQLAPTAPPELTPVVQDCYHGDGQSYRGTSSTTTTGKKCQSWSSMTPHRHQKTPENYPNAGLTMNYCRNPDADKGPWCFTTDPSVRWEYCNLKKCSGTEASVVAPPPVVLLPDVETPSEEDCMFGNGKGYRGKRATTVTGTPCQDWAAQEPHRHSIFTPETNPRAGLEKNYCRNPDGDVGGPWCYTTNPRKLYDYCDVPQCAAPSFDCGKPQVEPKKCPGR
Sequence of Plasmin (P00747 581-810 limits assumed, species assumed): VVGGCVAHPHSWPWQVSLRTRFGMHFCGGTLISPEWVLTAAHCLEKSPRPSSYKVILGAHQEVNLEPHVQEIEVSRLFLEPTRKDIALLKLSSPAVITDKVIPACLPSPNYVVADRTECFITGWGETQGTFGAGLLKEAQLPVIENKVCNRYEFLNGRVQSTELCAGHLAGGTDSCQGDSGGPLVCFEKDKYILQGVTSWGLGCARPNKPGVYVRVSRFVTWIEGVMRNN

[8] = Peripheral blood pressure after intravenous dose; type: in vivo, New Zealand white rabbits; conditions: 1 mg/kg i.v. dose
Excerpt: […] R. May, C. M. Hero, K. D. Butler, C. P. Page, JOURNAL OF PHARMACOLOGICAL METHODS, 24, pp 1-35, 1990. Peripheral blood pressure was monitored by a pressure sensor in the carotid artery.

[9] = test system: bovine thrombin in plasma samples; experiment: Ex-vivo TT; type: in vivo, New Zealand white rabbits; parameters: key: thrombin (coagulation) time in seconds; conditions: 1 mg/kg i.v. bolus, rabbit
Description: as §1, §2
(§3) Data was obtained as for in-vitro tests, but using plasma samples obtained at 0, 1, 10, 30 and 60 minutes after dosing of 1 mg/kg, i.v. bolus injection in a marginal ear vein in New Zealand white rabbits, which were anaesthetized from a canula in the carotid artery. [drawing 18]

[10] = test system: 111indium-labelled platelets; experiment: Deposition of 111indium-labelled platelets after intravenous dose; type: in vivo, New Zealand white rabbits; conditions: 1 mg/kg i.v. dose
Excerpt: M. Hero, K. D. Butler, C. […] Peripheral blood pressure was monitored by a pressure sensor in the carotid artery.

[11] = test system: plasma samples; experiment: Ex-vivo APTT; type: in vivo, New Zealand white rabbits; parameters: unit not given here; conditions: 1 mg/kg i.v. bolus, rabbit
Description: A volume of 150 μl of citrated (3.2%) normal human plasma was incubated at 37° C. with sample (20 μl) or buffer (20 μl, control) for 1 min. To the solution was added reconstituted “AUTOMATED APTT” (available from Organon Teknika, 0.1 ml). Each solution was activated at 37° C. for 5 min.
After activation, calcium chloride (0.1 ml, 0.025M, prewarmed at 37° C.) was added and clot detection was timed using a “semiautomated coagulometer” (Nach, Schnicter und Gross).
as §3

[12] = no incubation, read-out: IC50 No Incubations
[13] = with incubation, read-out: IC50 Inc.
[14] = human α-thrombin, S-2238, 37° C., read-out: Ki

Compound: CCCCCC(NC(=O)[C@@H]1CCCN1C(=O)[C@H](N)C(c1ccccc1)c1ccccc1)P(=O)(O)O (stereo partly drawn) [Compound 18, D-Dpa-Pro-Pgl^P(OH)2]
- pIC50 [1, 12]: 3.83
- pIC50 [1, 13]: 6.12
- pKi [2, 14]: 4.82

Compound: N=C(N)NCCCC(NC(=O)C1CCCN1C(=O)C(N)Cc1ccc2ccccc2c1)C(=O)CCC(=O)N1CCCCC1 (mixture of isomers) [Compound 14, D,L-β-Nal-Pro-Arg--k--Gly-Pip]
- TT [3]: 90.0 µM
- pKi ([2]; read-out: Ki): 4.94

Compound: COCCCC(NC(=O)[C@@H]1CCCN1C(=O)[C@H](N)Cc1ccccc1)P(=O)(Oc1ccccc1)Oc1ccccc1 (stereo partly drawn) [Compound 40, H-D-Phe-Pro-Mpg^P(OPh)2]
- pIC50 ([4]; no incubation (first value of cell), read-out: Kalhikrein no inc): < 4.68
- pIC50 ([4]; with incubation (second value of cell), read-out: Kalhikrein inc): < 4.68
- pIC50 ([5]; no incubation (first value of cell), read-out: Xa no inc): < 4.68
- pIC50 ([5]; with incubation (second value of cell), read-out: Xa inc): < 4.68
- pIC50 [1, 12]: 4.78
- pIC50 [1, 13]: 7.93
- pIC50 ([6]; no incubation (first value of cell), read-out: Urokinase no inc): < 4.68
- pIC50 ([6]; with incubation (second value of cell), read-out: Urokinase inc): < 4.68
- pIC50 ([7]; no incubation (first value of cell), read-out: Plasmin no inc): < 4.68
- pKi ([2]; read-out: Ki): 7.73

Compound: Z-D-Phe-Pro-BoroMbg-OPin [Compound 59]
- BLOOD PRESSURE Δ% of NORM [8]: NONE
- EX-VIVO T.T. ([9]; time 0 min): 28.9 and 22.5 and 22.4 and 23.5
- EX-VIVO T.T. ([9]; time 1 min): 111 and 106 and 171.5 and 168.5
- EX-VIVO T.T. ([9]; time 10 min): 35.9 and 34 and 37.9 and 38.4
- EX-VIVO T.T. ([9]; time 30 min): 29 and 30 and 32 and 31
- EX-VIVO T.T. ([9]; time 60 min): 28.4 and 28.5 and 27.9 and 28
- PLATELET ACCUMULATION (% OF NORMAL) LEG [10]: NONE
- PLATELET ACCUMULATION (% OF NORMAL) LUNG [10]: NONE
- EX-VIVO A.P.T.T. ([11]; time 0 min): 42 and 59.5 and 43.9 and 58
- EX-VIVO A.P.T.T. ([11]; time 1 min): 111.4 and 111 and 102.9 and 126
- EX-VIVO A.P.T.T. ([11]; time 10 min): 48.9 and 53 and 60.5 and 67
- EX-VIVO A.P.T.T. ([11]; time 30 min): 34.9 and 49 and 59 and 53.9
- EX-VIVO A.P.T.T. ([11]; time 60 min): 40.4 and 48.4 and 65.5 and 62

Compound: N=C(N)Nc1ccc(CC(NC(=O)[C@@H]2CCCN2C(=O)[C@H](N)Cc2ccccc2)C(=O)CCC(=O)N2CCCCC2)cc1 (stereo partly drawn) [D-Phe-Pro-Gpa-k--Gly-Pip, D-Phe-Pro-Gpa--k--Gly-Pip]
- TT [3]: 4.9 µM
- pKi ([2]; read-out: Ki): 5.89

Compound: CCCCCC(NC(=O)C1CCCN1C(=O)C(Cc1ccccc1)NC(=O)OCc1ccccc1)P(=O)(Oc1ccccc1)Oc1ccccc1 [Compound 19, Z-D-Phe-Pro-Pgl^P(OPh)2]
- pKi [2]: < 4.51

Compound: N=C(N)NCCCC(NC(=O)C1CCCN1C(=O)C(N)C1c2ccccc2-c2ccccc21)C(=O)CCC(=O)N1CCCCC1 [Compound 8, D-Fgl-Pro-Arg--k--Gly-Pip]
- TT [3]: 50.0 µM

Compound: Bzl-Pros-Pro-BoroIrg-Opin [Compound 44]
- pIC50 ([4]; single value given, incubation not given, read-out: Kalhikrein no inc/inc): 5.97
- pIC50 ([5]; single value given, incubation not given, read-out: Xa no inc/inc): 6.29
- pIC50 [1, 12]: 5.89
- pIC50 ([6]; single value given, incubation not given, read-out: Urokinase no inc/inc): 6.92
- pIC50 ([7]; single value given, incubation not given, read-out: Plasmin no inc/inc): 6.82

Compound: CCCCCC(NC(=O)C1CCCN1C(=O)C(N)Cc1ccccc1)P(=O)(Oc1ccccc1)Oc1ccccc1 [Compound 20, D-Phe-Pro-Pgl^P(OPh)2]
- BLOOD PRESSURE Δ% of NORM [8]: NONE
- PLATELET ACCUMULATION (% OF NORMAL) LEG [10]: NONE
- PLATELET ACCUMULATION (% OF NORMAL) LUNG [10]: NONE
- pKi [2]: 6.96

Compound: CC(C)(C)OC(=O)NC(C(=O)N1CCCC1C(=O)NC(c1ccccc1)P(=O)(O)O)C(c1ccccc1)c1ccccc1 [Compound 15, Boc-D,L-Dpa-Pro-Pgl^P(OH)2]
- pIC50 [1, 12]: 5.28
- pIC50 [1, 13]: 7.08
- pKi [2, 14]: 4.23
